Assay results taken from PMC11606603, “The membrane domains of mammalian adenylyl cyclases are lipid receptors” (eLife, 2024).
“And” between values parts separate entries of the source, which are not always exact repeats. Equal values may be shown once.

How the values were obtained:
Assay type in all cases: biochemical
[1] = biological target: T1, mAC6 (Homo sapiens, UniProt O43306); assay: AC assay, Gsα-stimulated mAC6 in membranes from transfected HEK293 cells
T1 construct: Human mAC genes were from GenScript and fitted with a C-terminal FLAG-tag; FLAG (C); made in house; host or cells: HEK293, permanently transfected; membrane preparation
T1 sequence (O43306 whole entry): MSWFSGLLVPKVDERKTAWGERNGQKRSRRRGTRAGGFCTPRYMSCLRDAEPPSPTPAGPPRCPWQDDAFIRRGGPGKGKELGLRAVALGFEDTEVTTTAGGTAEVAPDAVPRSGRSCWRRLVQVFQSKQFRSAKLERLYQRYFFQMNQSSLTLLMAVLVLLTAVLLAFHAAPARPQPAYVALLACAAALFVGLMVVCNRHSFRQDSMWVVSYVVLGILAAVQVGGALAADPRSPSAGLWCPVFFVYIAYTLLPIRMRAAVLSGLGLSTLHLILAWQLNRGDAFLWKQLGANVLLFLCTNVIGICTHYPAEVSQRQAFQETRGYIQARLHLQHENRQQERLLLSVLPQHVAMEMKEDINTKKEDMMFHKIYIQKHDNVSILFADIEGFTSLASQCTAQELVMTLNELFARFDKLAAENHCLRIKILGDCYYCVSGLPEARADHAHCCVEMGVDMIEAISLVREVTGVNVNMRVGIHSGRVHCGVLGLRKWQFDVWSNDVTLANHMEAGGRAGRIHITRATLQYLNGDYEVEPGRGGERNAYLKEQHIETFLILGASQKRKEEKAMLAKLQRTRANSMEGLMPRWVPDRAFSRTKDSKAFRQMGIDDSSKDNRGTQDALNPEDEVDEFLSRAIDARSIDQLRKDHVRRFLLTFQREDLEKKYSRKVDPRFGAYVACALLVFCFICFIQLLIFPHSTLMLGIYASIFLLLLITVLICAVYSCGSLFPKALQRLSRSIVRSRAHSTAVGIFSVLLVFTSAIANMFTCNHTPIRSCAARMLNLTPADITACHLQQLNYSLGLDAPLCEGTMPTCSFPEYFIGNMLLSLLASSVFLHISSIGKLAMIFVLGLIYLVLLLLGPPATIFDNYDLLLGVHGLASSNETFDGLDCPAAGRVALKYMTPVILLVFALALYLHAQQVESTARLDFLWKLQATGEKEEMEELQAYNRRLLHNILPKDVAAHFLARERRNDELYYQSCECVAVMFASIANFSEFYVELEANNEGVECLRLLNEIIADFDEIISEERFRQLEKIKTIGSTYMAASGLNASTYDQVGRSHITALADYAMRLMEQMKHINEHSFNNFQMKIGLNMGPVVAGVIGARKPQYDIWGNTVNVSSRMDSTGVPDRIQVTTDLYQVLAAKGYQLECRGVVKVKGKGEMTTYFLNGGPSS
How it was run: (§1)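 cAMP formation was quantified by HTRF against a cAMP standard curve, with EC50 or IC50 derived by curve fitting. Reactions contained 1 mM ATP, 2 mM MgCl2, 3 mM creatine phosphate, 60 μg/ml creatine kinase and 50 mM MOPS pH 7.5, using membranes of stably transfected HEK293 cells carrying FLAG-tagged human AC.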

[2] = biological target: T2, mAC2 (Homo sapiens, UniProt Q08462); assay: AC assay, Gsα-stimulated mAC2 in membranes from transfected HEK293 cells; details: for mAC2 activity [%] (100% = 300nM Gsα stimulation): Figure 5 B
T2 construct: Human mAC genes were from GenScript and fitted with a C-terminal FLAG-tag; FLAG (C); made in house; host or cells: HEK293, permanently transfected; membrane preparation
T2 sequence (Q08462 whole entry): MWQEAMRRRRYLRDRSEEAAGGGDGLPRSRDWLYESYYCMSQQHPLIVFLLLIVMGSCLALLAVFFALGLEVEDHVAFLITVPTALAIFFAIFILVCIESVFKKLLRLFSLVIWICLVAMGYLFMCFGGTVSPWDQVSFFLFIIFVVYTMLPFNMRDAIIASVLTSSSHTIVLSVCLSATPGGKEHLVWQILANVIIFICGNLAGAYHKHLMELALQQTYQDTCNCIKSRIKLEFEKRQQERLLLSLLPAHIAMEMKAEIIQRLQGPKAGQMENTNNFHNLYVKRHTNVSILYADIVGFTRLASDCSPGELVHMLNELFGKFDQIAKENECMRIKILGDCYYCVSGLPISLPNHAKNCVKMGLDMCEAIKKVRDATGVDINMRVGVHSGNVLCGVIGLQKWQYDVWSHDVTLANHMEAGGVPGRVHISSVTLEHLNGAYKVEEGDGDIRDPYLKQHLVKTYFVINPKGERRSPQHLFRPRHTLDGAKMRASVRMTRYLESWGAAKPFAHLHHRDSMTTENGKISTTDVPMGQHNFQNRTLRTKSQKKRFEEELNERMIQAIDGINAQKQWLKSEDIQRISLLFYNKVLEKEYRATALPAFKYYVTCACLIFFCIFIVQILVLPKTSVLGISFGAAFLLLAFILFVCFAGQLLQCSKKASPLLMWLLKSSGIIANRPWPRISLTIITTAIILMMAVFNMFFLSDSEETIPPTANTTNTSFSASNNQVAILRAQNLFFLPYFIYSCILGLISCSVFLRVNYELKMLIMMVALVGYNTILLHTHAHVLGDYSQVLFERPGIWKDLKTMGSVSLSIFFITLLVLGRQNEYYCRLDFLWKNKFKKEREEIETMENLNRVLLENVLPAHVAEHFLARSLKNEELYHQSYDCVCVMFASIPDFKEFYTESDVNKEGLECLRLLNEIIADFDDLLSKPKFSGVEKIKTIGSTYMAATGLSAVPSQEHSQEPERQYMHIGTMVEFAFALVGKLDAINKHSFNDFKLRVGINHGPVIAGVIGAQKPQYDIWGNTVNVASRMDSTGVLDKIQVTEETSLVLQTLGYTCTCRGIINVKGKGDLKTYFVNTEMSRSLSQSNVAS
T2 sequence (P63092 2-394 Q227L partner): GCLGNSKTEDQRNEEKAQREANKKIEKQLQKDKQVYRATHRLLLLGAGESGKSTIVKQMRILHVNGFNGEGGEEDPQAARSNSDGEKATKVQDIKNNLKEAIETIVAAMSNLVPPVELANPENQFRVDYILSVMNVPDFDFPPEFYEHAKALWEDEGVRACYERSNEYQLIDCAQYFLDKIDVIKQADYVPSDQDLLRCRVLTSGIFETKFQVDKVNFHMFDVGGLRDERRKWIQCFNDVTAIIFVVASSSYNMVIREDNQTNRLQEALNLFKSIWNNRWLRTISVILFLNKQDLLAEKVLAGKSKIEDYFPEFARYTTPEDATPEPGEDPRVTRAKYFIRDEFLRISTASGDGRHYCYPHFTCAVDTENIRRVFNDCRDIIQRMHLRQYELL
How it was run: as §1

[3] = biological target: T3, mAC4 (Homo sapiens, UniProt Q8NFM4); assay: AC assay, Gsα-stimulated mAC4 in membranes from transfected HEK293 cells
T3 construct: Human mAC genes were from GenScript and fitted with a C-terminal FLAG-tag; FLAG (C); made in house; host or cells: HEK293, permanently transfected; membrane preparation
T3 sequence (Q8NFM4 1-1077): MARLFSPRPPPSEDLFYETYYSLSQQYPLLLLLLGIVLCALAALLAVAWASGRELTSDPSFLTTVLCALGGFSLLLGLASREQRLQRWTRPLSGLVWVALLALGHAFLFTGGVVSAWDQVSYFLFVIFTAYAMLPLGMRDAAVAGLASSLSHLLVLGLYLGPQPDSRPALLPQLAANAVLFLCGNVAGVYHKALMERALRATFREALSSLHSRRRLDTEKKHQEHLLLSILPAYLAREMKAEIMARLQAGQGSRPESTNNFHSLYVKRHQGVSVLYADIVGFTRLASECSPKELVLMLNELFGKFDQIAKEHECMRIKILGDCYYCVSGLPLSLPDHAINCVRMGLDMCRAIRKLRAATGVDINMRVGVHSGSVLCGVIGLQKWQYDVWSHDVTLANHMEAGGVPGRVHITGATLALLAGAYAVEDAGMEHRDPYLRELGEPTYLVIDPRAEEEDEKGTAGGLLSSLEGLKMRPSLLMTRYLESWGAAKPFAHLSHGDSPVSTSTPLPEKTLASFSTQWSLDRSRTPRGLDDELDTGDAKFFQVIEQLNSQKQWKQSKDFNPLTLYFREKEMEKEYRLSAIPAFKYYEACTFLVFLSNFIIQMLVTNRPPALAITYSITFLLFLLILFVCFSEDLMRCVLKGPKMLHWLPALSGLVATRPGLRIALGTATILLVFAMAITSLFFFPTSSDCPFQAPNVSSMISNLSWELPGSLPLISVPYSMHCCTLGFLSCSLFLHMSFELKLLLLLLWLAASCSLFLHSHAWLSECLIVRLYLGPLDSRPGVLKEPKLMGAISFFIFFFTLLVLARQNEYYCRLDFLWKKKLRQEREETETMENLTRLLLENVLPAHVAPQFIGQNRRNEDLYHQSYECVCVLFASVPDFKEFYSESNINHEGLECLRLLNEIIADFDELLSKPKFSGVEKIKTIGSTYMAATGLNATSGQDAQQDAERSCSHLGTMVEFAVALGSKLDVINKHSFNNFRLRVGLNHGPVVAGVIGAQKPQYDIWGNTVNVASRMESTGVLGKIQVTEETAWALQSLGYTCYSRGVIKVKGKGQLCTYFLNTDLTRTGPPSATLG
How it was run: as §1

[4] = biological target: T4, mAC3 (Homo sapiens, UniProt O60266); assay: AC assay, Gsα-stimulated mAC3 in membranes from transfected HEK293 cells; set-up: ATP/V (mAC3 + 20µM Oleic acid): unit not given here; details: for ATP/V (mAC3 + 20µM Oleic acid): Hanes-Woolf plot; for mAC3 activity + 20µM Oleic acid: Michaelis-Menten
T4 construct: Human mAC genes were from GenScript and fitted with a C-terminal FLAG-tag; FLAG (C); made in house; host or cells: HEK293, permanently transfected; membrane preparation
T4 sequence (O60266 whole entry): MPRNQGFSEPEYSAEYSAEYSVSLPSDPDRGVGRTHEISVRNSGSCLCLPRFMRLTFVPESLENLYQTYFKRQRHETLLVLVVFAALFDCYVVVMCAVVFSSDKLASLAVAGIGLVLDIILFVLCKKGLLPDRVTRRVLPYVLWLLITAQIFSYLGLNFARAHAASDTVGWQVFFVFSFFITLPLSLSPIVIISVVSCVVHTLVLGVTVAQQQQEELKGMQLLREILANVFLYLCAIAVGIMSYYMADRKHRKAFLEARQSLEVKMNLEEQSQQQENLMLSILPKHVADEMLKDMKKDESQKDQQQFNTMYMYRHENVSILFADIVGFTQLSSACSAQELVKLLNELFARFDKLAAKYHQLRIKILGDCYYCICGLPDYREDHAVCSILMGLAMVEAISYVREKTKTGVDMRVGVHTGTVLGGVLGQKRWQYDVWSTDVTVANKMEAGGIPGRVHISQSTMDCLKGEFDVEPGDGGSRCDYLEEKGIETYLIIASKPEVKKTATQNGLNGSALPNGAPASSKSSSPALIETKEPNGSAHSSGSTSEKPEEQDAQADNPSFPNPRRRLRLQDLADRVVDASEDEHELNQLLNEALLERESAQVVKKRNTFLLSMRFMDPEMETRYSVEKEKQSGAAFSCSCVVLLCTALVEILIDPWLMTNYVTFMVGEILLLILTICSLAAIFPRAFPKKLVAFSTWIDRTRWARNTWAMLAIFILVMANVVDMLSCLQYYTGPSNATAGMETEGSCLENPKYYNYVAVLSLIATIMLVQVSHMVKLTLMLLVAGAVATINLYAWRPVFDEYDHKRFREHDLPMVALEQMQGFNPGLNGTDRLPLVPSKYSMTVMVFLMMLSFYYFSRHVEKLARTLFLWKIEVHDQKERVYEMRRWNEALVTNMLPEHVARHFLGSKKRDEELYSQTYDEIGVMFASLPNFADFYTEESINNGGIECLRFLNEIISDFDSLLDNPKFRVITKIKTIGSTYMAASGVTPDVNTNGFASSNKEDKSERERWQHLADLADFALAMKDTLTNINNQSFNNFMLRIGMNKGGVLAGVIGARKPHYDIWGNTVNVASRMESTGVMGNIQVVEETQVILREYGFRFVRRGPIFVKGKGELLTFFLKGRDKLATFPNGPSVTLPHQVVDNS
T4 sequence (P63092 whole entry Q227L partner): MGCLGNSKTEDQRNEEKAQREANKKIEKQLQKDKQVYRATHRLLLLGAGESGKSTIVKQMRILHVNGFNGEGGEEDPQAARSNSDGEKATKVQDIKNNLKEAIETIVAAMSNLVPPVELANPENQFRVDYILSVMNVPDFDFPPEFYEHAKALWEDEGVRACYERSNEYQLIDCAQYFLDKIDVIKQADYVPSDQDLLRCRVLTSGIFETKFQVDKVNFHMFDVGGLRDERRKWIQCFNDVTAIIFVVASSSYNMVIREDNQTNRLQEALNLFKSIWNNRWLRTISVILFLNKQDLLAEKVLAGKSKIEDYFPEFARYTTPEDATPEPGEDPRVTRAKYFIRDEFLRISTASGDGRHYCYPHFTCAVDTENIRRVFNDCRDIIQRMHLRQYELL
How it was run: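 EC50 and IC50 values come from cAMP production, read with a Cisbio cAMP kit and converted via a standard curve. Assay mix held 1 mM ATP, 2 mM MgCl2, 3 mM creatine phosphate and 60 μg/ml creatine kinase in 50 mM MOPS pH 7.5, using transfected HEK293 membranes.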

[5] = Figure 5 A, 20 µM oleic acid, 300 nM Gsα

In the case of CCCCCCCC/C=C\CCCCCCCC(=O)O [Oleic acid, Oleic ((9Z)-octadecenoic) acid], the “mAC6 activity [%] (100% = 300nM Gsα stimulation)” value ([1]; 20µM fatty acid concentration) is reported as 92% and 80% and 133%, the “Effect of lipid on 300 nM Gsα-stimulated mAC6” value ([1]; 20 µM, in words) is reported as “unaffected” and the “mAC activity [%] (100% = 300nM Gsα stimulation); 20µM Oleic acid concentration, mAC6” value [1, 5] is reported as 92% and 80% and 133%. The “Effect of lipid on 300 nM Gsα-stimulated mAC2” value ([2]; 20 µM, in words) was “significantly enhanced”, the “mAC2 activity [%] (100% = 300nM Gsα stimulation); 20µM fatty acid concentration” value ([2]; Figure 5-figure supplement 1 left, 20 µM) was 252% and 212% and 173% and 181% and 196% and 228% and 168% and the “mAC2 activity [%] (100% = 300nM Gsα stimulation)” value ([2]; oleic acid 0.3 µM) was 100%. For the same compound, the “mAC2 activity [%] (100% = 300nM Gsα stimulation)” value ([2]; oleic acid 1 µM) was 98% and 100% and 117% and 87%, the “mAC2 activity [%] (100% = 300nM Gsα stimulation)” value ([2]; oleic acid 3 µM) was 82% and 99% and 116% and 107% and the “mAC2 activity [%] (100% = 300nM Gsα stimulation)” value ([2]; oleic acid 6 µM) was 120% and 95% and 119% and 162% and 110% and 87%. The “mAC2 activity [%] (100% = 300nM Gsα stimulation)” value ([2]; oleic acid 10 µM) was 157% and 167% and 142% and 171% and 162% and 123%, the “mAC2 activity [%] (100% = 300nM Gsα stimulation)” value ([2]; oleic acid 20 µM) was 196% and 228% and 168% and 252% and 212% and 173% and 181% and the EC50 ([2]; enhancement of 300 nM Gsα-stimulated activity) was 8.6 µM. For the same compound, the “mAC4 activity [%] (100% = 300nM Gsα stimulation); 20µM fatty acid concentration” value ([3]; 20 µM fatty acid, 300 nM Gsα, single experiments) was 100% and 72% and 120% and 92%, the “Effect of lipid on 300 nM Gsα-stimulated mAC4” value ([3]; 20 µM, in words) was “unaffected” and the “mAC activity [%] (100% = 300nM Gsα stimulation); 20µM Oleic acid concentration, mAC4” value [3, 5] was 72% and 92% and 64% and 100%. The “time over which the action on mAC3 was linear” value ([4]; 300 nM Gsα + 20 µM oleic acid, 37°C) was greater than 25 min, the “enhancement of cAMP formation, mAC3” value ([4]; 20 µM oleic, over the Gsα concentration range tested) was “about 3.4 fold” and the “Effect of lipid on 300 nM Gsα-stimulated mAC3” value ([4]; 20 µM, in words) was “threefold”. For the same compound, the “activity, mAC3 + 20µM Oleic acid” value ([4]; Gsα 100 nM) was 0.209 cAMP nmol/mg/min and 0.110 cAMP nmol/mg/min and 0.112 cAMP nmol/mg/min, the “activity, mAC3 + 20µM Oleic acid” value ([4]; Gsα 300 nM) was 0.432 cAMP nmol/mg/min and 0.605 cAMP nmol/mg/min and 0.596 cAMP nmol/mg/min and the “activity, mAC3 + 20µM Oleic acid” value ([4]; Gsα 450 nM) was 0.779 cAMP nmol/mg/min and 1.182 cAMP nmol/mg/min and 0.727 cAMP nmol/mg/min. The “activity, mAC3 + 20µM Oleic acid” value ([4]; Gsα 600 nM) was 0.825 cAMP nmol/mg/min and 1.078 cAMP nmol/mg/min and 1.302 cAMP nmol/mg/min, the “activity, mAC3 + 20µM Oleic acid” value ([4]; Gsα 800 nM) was 1.075 cAMP nmol/mg/min and 1.164 cAMP nmol/mg/min and 1.303 cAMP nmol/mg/min and the “activity, mAC3 + 20µM Oleic acid” value ([4]; Gsα 1000 nM) was 1.029 cAMP nmol/mg/min and 1.444 cAMP nmol/mg/min and 1.731 cAMP nmol/mg/min. The “ATP/V (mAC3 + 20µM Oleic acid)” value ([4]; ATP 50 µM) was 208.8, the “ATP/V (mAC3 + 20µM Oleic acid)” value ([4]; ATP 75 µM) was 204.9 and the “ATP/V (mAC3 + 20µM Oleic acid)” value ([4]; ATP 250 µM) was 392.9. The “ATP/V (mAC3 + 20µM Oleic acid)” value ([4]; ATP 500 µM) was 636.9, the “ATP/V (mAC3 + 20µM Oleic acid)” value ([4]; ATP 750 µM) was 814.6 and the “ATP/V (mAC3 + 20µM Oleic acid)” value ([4]; ATP 1000 µM) was 941.6. The “mAC3 activity + 20µM Oleic acid” value ([4]; ATP 50 µM) was 0.232 nmol cAMP/mg/min and 0.247 nmol cAMP/mg/min, the “mAC3 activity + 20µM Oleic acid” value ([4]; ATP 75 µM) was 0.434 nmol cAMP/mg/min and 0.298 nmol cAMP/mg/min and the “mAC3 activity + 20µM Oleic acid” value ([4]; ATP 250 µM) was 0.713 nmol cAMP/mg/min and 0.609 nmol cAMP/mg/min and 0.587 nmol cAMP/mg/min. The “mAC3 activity + 20µM Oleic acid” value ([4]; ATP 500 µM) was 0.786 nmol cAMP/mg/min and 0.782 nmol cAMP/mg/min and 0.787 nmol cAMP/mg/min.
